# In patent EP4194000A1, “CISTUS MONSPELIENSIS EXTRACT AND COMPOSITIONS COMPRISING SAME FOR SKIN SOOTHING” (Pierre Fabre Dermo-Cosmétique, priority 2021, dated 2023):
# pEC50: −log10 of the molar value. Ends that are not written are not given here.
# How the values were obtained:
# Format in all cases: cell-based, humains
# substance P = test: Substance P release by sensory neurons derived from human pluripotent stem cells, stimulated with veratridine (ELISA)
# Source text: Le but de cette étude est d'évaluer les propriétés modulatrices d'un extrait de Cistus monspeliensis dans l'inflammation neurogène cutanée.
# Pour se faire, les inventeurs ont développé une approche expérimentale in vitro. Un modèle original de neurones sensoriels humains a été développé après une reprogrammation cellulaire de cellules souches pluripotentes humaines. Ce modèle permet d'étudier les propriétés inhibitrices de la libération de la substance P par les composés à tester, étudié après la stimulation. Ce neuropeptide, la substance P, étant le principal neuromédiateur impliqué dans les voies de la sensibilisation dans l'inflammation neurogène, la douleur et le prurit.
# L'étape initiale est la reprogrammation de cellules souches pluripotentes humaines par l'utilisation successive de différents cocktails de facteurs de croissance.
# Les caractérisations phénotypiques et morphologiques ont permis de vérifier le pattern des neurones sensoriels avec notamment l'expression des récepteurs spécifiques tels que TrKA, 5HT-2, P2RX3 ou des canaux tels que TRPV1, Nav1.7, Nav1.8, TRPM8 avec une colocalisation avec des marqueurs neuronaux (Tuj1, Brn3A). Ces caractérisations permettent d'établir une durée de reprogrammation pour atteindre un pattern optimal qui est entre J40 et J47 après le début des traitements avec le cocktail des facteurs de croissance.
# L'essai est réalisé sur le modèle de neurones sensoriels en culture dans un mélange de milieu (RPMI/N2/B27/Glutamax) en absence (conditions contrôle) ou en présence (groupes traités) des produits à tester. Ces deux conditions sont testées en présence de Vératridine ou en son absence. […] Les niveaux du neuropeptide qu'est la substance P sont quantifiés dix minutes après l'ajout de Veratridine. […]
# La substance P libérée est mesurée dans les milieux d'incubation du groupe non traité (contrôle) et des groupes traités après ou non la stimulation de Vératridine. Elle est quantifiée par ELISA selon les instructions du fournisseur. […]
# IL-17 = IL-17 release by isolated, amplified Th17 lymphocytes stimulated with anti-CD3/anti-CD28 beads (ELISA)
# Source text: (§1) Le but de cette étude est d'évaluer l'activité potentielle d'un extrait de Cistus monspeliensis selon l'invention pour moduler la production de cytokines impliquées dans le psoriasis et la dermatite atopique. Pour se faire, des lymphocytes Th17 isolés et amplifiés à partir du sang circulant de donneurs sont utilisés comme modèle in vitro d'immunopathogénèse du psoriasis. […]
# (§2) Les lymphocytes T sont triés à partir de cellules sanguines récupérées de poches de sang fournies par l'Etablissement Français du sang, pour obtenir le phénotype suivant : CD4+ CD45RA- CXCR3- CCR6+. Le nombre de lymphocytes Th17 ainsi obtenu est augmenté par une mise en culture de ces cellules en présence d'un mélange de cytokines (IL-2, anti-TNFα et anti-INFγ) pendant deux semaines.
# (§3) Le test est réalisé sur des lymphocytes Th17 humains isolés et amplifiés en absence (conditions contrôle) ou en présence (traité) des composés à tester et sont stimulés ou non par les facteurs de stimulation anti-CD3/anti-CD28.
# (§4) Les teneurs des cytokines pro-inflammatoires de Th17 (IL-17 et IL-22) sont quantifiées 24h après la stimulation.
# (§5) Les lymphocytes sont traités avec les composés à tester 30 minutes avant la stimulation et pendant 24 heures.
# (§6) La Nicardipine, bloqueur des canaux calciques non-sélectifs a été testée (10 µg/ml), solubilisée également dans le DMSO, est utilisée comme contrôle positif. […]
# IL-22 = IL-22 release by isolated, amplified Th17 lymphocytes stimulated with anti-CD3/anti-CD28 beads (ELISA)
# Source text: as §1, §2, §3, §4, §5, §6
# PAR-2 = molecular target: T1, PAR-2 (Homo sapiens, UniProt P55085); test: Aequorin test, agonist activity on recombinant PAR-2; conditions: reference agonist for PAR-2; read-out: CE50 (the source's name)
# T1 construct: expressed in transfected cells; host or cells: CHO-K1 mt aequorin (parental line named; inferred to be the host of the recombinant cells)
# T1 sequence (P55085 26-397): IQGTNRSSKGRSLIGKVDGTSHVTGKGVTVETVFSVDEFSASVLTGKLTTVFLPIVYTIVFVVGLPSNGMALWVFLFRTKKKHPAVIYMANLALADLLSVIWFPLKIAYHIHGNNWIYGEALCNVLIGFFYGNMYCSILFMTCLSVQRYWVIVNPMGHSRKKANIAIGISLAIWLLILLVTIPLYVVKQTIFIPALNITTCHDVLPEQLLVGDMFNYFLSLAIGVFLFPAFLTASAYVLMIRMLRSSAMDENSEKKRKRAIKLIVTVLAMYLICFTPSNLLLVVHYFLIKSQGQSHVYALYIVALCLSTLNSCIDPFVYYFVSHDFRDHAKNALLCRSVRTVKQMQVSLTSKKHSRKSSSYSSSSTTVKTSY
# Source text: Les inventeurs ont évalué les effets d'un extrait de Cistus monspeliensis sur deux cibles étroitement reliées au prurit, PAR-2 et MRGPRX2.
# Les PAR-2 sont des récepteurs couplés aux protéines G. PAR-2 module les réponses inflammatoires, joue un rôle dans l'obésité, le métabolisme et les cancers. PAR-2 agit comme un senseur pour des enzymes protéolytiques générées pendant l'infection. PAR-2 serait retrouvé dans les kératinocytes épidermiques au niveau de la couche stratum granulosum. Des PAR-2 fonctionnels sont également exprimés dans plusieurs types de cellules immunitaires, telles que les éosinophiles, les neutrophiles, les monocytes, les macrophages, les cellules dendritiques, les mastocytes et les cellules T. Le PAR-2 est activé par clivage protéolytique par la tryptase qui est la protéase principale des cellules mastocytaires et la kallikréine qui est impliquée dans des processus inflammatoires et d'homéostasie épidermique. De plus, le clivage protéolytique de PAR-2 induit une signalisation calcique s'il est exprimé dans les neurones participant à la voie afférente. L'activation de MRGPRX2 ([…] G-Protein coupled Receptor) entraine une dégranulation des cellules mastocytaires avec par la suite des réactions pseudo-allergiques. […]
# [1] = 10µg/ml, Th17 stimulated anti-CD3/anti-CD28, 24h
molecule,measurement,setting,value
"CCN(CC)CC(=O)Nc1c(C)cccc1C [Lidocaïne, lidocaïne]","substance P, Données brutes Moyenne","substance P; 100µM, under Vératridine 3µM stimulation","34,76 pg/ml"
same,libération de substance P (result in words),"substance P; 100µM, under Vératridine stimulation",réduit significativement la libération de substance P
COC(=O)C1=C(C)NC(C)=C(C(=O)OCCN(C)Cc2ccccc2)C1c1cccc([N+](=O)[O-])c1 (centres unmarked) [Nicardipine],IL-17 (moyenne),IL-17; [1],721 pg/mL
same,inhibition at 10 µg/mL,IL-17; Lymphocyte,43%
same,IL-22 (moyenne),IL-22; [1],440 pg/mL
same,inhibition at 10 µg/mL,IL-22; Lymphocyte,37%
COc1ccc(C(=O)O[C@H]2CC[C@@]3(C)[C@@H]4CC[C@H]5[C@]6(O)C[C@H](O)[C@@]7(O)[C@@H](CN8C[C@@H](C)CC[C@H]8[C@@]7(C)O)[C@]6(O)C[C@@]53O[C@]24O)cc1OC [Vératridine],"substance P, Données brutes Moyenne","substance P; Vératridine 3µM alone (stimulus), 10 minutes","96,26 pg/ml"
SLIGRL-NH2 [SLIGRL-NH2],pEC50,PAR-2,6.28
